From ChEMBL document CHEMBL1137472, “Discovery of potent HIV-1 protease inhibitors incorporating sulfoximine functionality” (Bioorg Med Chem Lett, 2007)

Key:
Protease = Protease (Human immunodeficiency virus 1, UniProt Q9YQ12); experiment: Inhibition of HIV1 recombinant protease
[1] = target: Protease (Human immunodeficiency virus 1) (UniProt Q9YQ12); experiment: Inhibition of HIV1 recombinant protease at 10 uM
[2] = system: Human immunodeficiency virus 1; experiment: Antiviral activity against HIV1; assay type: functional, organism-based

Chain of Protease (Q9YQ12 whole entry): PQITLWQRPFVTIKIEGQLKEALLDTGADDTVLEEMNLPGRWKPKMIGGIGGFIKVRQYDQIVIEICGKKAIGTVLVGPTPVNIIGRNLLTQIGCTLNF
Chain of Protease (Human immunodeficiency virus 1) (Q9YQ12 as listed by the source): as the sequence (Q9YQ12 whole entry) above

`O=C(N[C@@H]1c2ccccc2C[C@@H]1O)[C@@H](Cc1ccccc1)C[S+]([O-])C[C@H](Cc1ccccc1)C(=O)N[C@@H]1c2ccccc2C[C@@H]1O` (single isomer, unassigned) gave an IC50 (Protease) of 0.0211 µM.

`O=C(N[C@H]1c2ccccc2C[C@H]1O)C(Cc1ccccc1)S(=O)(=O)C(Cc1ccccc1)C(=O)N[C@H]1c2ccccc2C[C@H]1O` (stereo partly specified) was tested, and the inhibition [1] was 30%.

`N=[S+]([O-])([C@H](Cc1ccccc1)C(=O)N[C@H]1c2ccccc2C[C@H]1O)[C@H](Cc1ccccc1)C(=O)N[C@H]1c2ccccc2C[C@H]1O` showed an IC50 (Protease) of 0.154 µM.

For `N=[S+]([O-])([C@H](Cc1ccccc1)C(=O)N[C@H]1c2ccccc2C[C@H]1O)[C@@H](Cc1ccccc1)C(=O)N[C@H]1c2ccccc2C[C@H]1O`, the IC50 (Protease) was 0.0373 µM.

`O=C(N[C@H]1c2ccccc2C[C@H]1O)C(CSCC(Cc1ccccc1)C(=O)N[C@H]1c2ccccc2C[C@H]1O)Cc1ccccc1` (stereo partly specified) was tested, and the inhibition [1] was 15%.

`O=C(N[C@H]1c2ccccc2C[C@H]1O)[C@@H](Cc1ccccc1)C[S+]([O-])C[C@H](Cc1ccccc1)C(=O)N[C@H]1c2ccccc2C[C@H]1O` gave an IC50 (Protease) of over 10 µM.

Work on `N=[S+]([O-])(C[C@H](Cc1ccccc1)C(=O)N[C@@H]1c2ccccc2C[C@@H]1O)C[C@H](Cc1ccccc1)C(=O)N[C@@H]1c2ccccc2C[C@@H]1O` yielded an IC50 [2] of 0.408 µM and an IC50 (Protease) of 0.0025 µM.

`O=C(N[C@H]1c2ccccc2C[C@H]1O)C(Cc1ccccc1)C[S+]([O-])CC(Cc1ccccc1)C(=O)N[C@H]1c2ccccc2C[C@H]1O` (stereo partly specified) gave an inhibition [1] of 75%.

`N=[S+]([O-])(C(Cc1ccccc1)C(=O)N[C@H]1c2ccccc2C[C@H]1O)C(Cc1ccccc1)C(=O)N[C@H]1c2ccccc2C[C@H]1O` (stereo partly specified) was tested, and the inhibition [1] was 87%.

`O=C(N[C@H]1c2ccccc2C[C@H]1O)[C@H](Cc1ccccc1)C[S+]([O-])C[C@H](Cc1ccccc1)C(=O)N[C@H]1c2ccccc2C[C@H]1O` was tested, and the IC50 (Protease) was 0.0531 µM.
